Assay results taken from PubChem BioAssay (NCI).
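Cultured in 96-well plates, cells were exposed to test compound for 48 hours across five concentrations. GI50 marks 50% less growth. TGI denotes the concentration required for complete inhibition of growth.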

Assays:
Assay in all cases: inhibition of tumour cell growth, NCI panel, 48 h
[1] = test system: 786-0 renal
[2] = test system: HOP-62 NSCLC
[3] = test system: KM12 colon
[4] = test system: M14 melanoma
[5] = test system: NCI-H23 lung
[6] = test system: SF-295 CNS
[7] = test system: SW-620 colon
[8] = test system: TK-10 renal
[9] = test system: MCF7 breast
[10] = test system: NCI/ADR-RES ovarian

## N#CC(C#N)=C1NC(=O)CC(=O)N1
[1]
  TGI: > 100 µM
[2]
  TGI: > 100 µM
[3]
  TGI: > 100 µM
[4]
  TGI: > 100 µM
[5]
  TGI: > 100 µM
[6]
  TGI: > 100 µM
[7]
  TGI: > 100 µM
[8]
  TGI: > 100 µM

## Fc1ccc(C2SCc3nc4ccccc4n32)c(F)c1 (stereo not drawn)
[1]
  TGI: > 100 µM
[2]
  TGI: > 100 µM
[3]
  TGI: > 100 µM
[4]
  TGI: > 100 µM
[5]
  TGI: > 100 µM
[6]
  TGI: > 100 µM
[7]
  TGI: > 100 µM
[8]
  TGI: > 100 µM

## O=C1c2c(c3c4ccccc4[nH]c3c3ccc4ccccc4c23)C(=O)N1CCN1CCNCC1
[1]
  GI50: 1.76 µM
  TGI: 3.21 µM
[2]
  GI50: 1.81 µM
  TGI: 3.69 µM
[3]
  GI50: 1.5 µM
  TGI: 3.07 µM
[4]
  GI50: 1.67 µM
  TGI: 3.24 µM
[9]
  GI50: 1 µM
  TGI: 2.42 µM
[5]
  GI50: 1.84 µM
  TGI: 3.7 µM
[6]
  GI50: 1.85 µM
  TGI: 3.42 µM
[7]
  GI50: 1.49 µM
  TGI: 3.16 µM
[8]
  GI50: 1.77 µM
  TGI: 3.24 µM

## CCCP1(=O)C=C(C)C(=C(Cl)Cl)C(C)=C1 (stereo not drawn)
[1]
  TGI: > 100 µM
[2]
  TGI: > 100 µM
[3]
  TGI: 67.9 µM
[4]
  TGI: > 100 µM
[5]
  TGI: 85.5 µM
[6]
  TGI: > 100 µM
[7]
  TGI: > 100 µM
[8]
  TGI: > 100 µM

## CC1(O)C=CC(=O)C=C1
[1]
  TGI: 49.6 µM
[2]
  TGI: > 79.9 µM
[3]
  TGI: > 75.4 µM
[4]
  TGI: 41.6 µM
[5]
  TGI: 93.8 µM
[6]
  TGI: > 100 µM
[7]
  TGI: > 100 µM
[8]
  TGI: > 93 µM

## N#CC(=C1C=CC(=NO)C=C1)c1ccc(Cl)cc1
[1]
  TGI: 5.69 µM
[2]
  TGI: 41.6 µM
[3]
  TGI: 3.98 µM
[4]
  TGI: 41.5 µM
[5]
  TGI: 75.3 µM
[6]
  TGI: 48 µM
[7]
  TGI: 24 µM
[8]
  TGI: 75 µM

## COc1ccc(-c2cc(Cc3cccs3)c(=O)[nH]n2)cc1
[1]
  TGI: > 100 µM
[3]
  TGI: > 100 µM
[5]
  TGI: > 100 µM
[6]
  TGI: > 100 µM
[7]
  TGI: > 100 µM
[8]
  TGI: > 100 µM

## COc1cc(C(=O)C/C(CCC(=O)Nc2ccccc2[N+](=O)[O-])=N\NC(N)=O)ccc1O
[1]
  TGI: > 100 µM
[2]
  TGI: > 100 µM
[3]
  TGI: > 100 µM
[4]
  TGI: > 100 µM
[5]
  TGI: > 100 µM
[6]
  TGI: > 100 µM
[7]
  TGI: > 100 µM
[8]
  TGI: > 100 µM

## CS(=O)(=O)c1ccc(-c2cc(-c3ccc(S(C)(=O)=O)cc3)[n+](-c3cc(-c4ccc(S(C)(=O)=O)cc4)c([O-])c(-c4ccc(S(C)(=O)=O)cc4)c3)c(-c3ccc(S(C)(=O)=O)cc3)c2)cc1
[1]
  TGI: > 100 µM
[2]
  TGI: > 100 µM
[3]
  TGI: > 100 µM
[4]
  TGI: > 100 µM
[5]
  TGI: > 100 µM
[6]
  TGI: > 100 µM
[7]
  TGI: > 100 µM
[8]
  TGI: > 100 µM

## COc1ccc(C=O)c([N+](=O)[O-])c1
[1]
  TGI: > 100 µM
[2]
  TGI: > 100 µM
[3]
  TGI: > 100 µM
[4]
  TGI: > 100 µM
[5]
  TGI: > 100 µM
[6]
  TGI: 64.9 µM
[7]
  TGI: > 100 µM
[8]
  TGI: > 100 µM

## CCOC(=O)C1=C(C)N(c2ccc(Cl)cc2)[C@]2(C#N)C(O)=C(Cl)C(Cl)=C(O)[C@]12C#N
[1]
  GI50: > 100 µM
  TGI: > 100 µM
[2]
  GI50: > 100 µM
  TGI: > 100 µM
[3]
  GI50: 47.9 µM
  TGI: > 100 µM
[4]
  GI50: 49.7 µM
  TGI: > 100 µM
[9]
  GI50: > 100 µM
  TGI: > 100 µM
[5]
  GI50: > 100 µM
  TGI: > 100 µM
[6]
  GI50: > 100 µM
  TGI: > 100 µM
[7]
  GI50: 66.3 µM
  TGI: > 100 µM
[8]
  GI50: 65.4 µM
  TGI: > 100 µM

## CN(N=O)C(=O)ON1C(=O)CCC1=O
[1]
  TGI: > 100 µM
[2]
  TGI: > 100 µM
[3]
  TGI: > 100 µM
[4]
  TGI: > 100 µM
[5]
  TGI: > 100 µM
[7]
  TGI: > 100 µM
[8]
  TGI: > 100 µM

## C#C[C@]1(O)CCCC2=CC(=O)CC[C@@]21C
[1]
  TGI: > 100 µM
[3]
  TGI: > 100 µM
[4]
  TGI: > 100 µM
[5]
  TGI: > 100 µM
[6]
  TGI: > 100 µM
[7]
  TGI: > 100 µM
[8]
  TGI: > 100 µM

## O=C1C(=C([O-])c2ccccc2)C(=O)c2ccccc21.O=C1C(=C([O-])c2ccccc2)C(=O)c2ccccc21.[Fe+2]
[1]
  GI50: > 100 µM
  TGI: > 100 µM
[2]
  GI50: > 100 µM
  TGI: > 100 µM
[3]
  GI50: 55.1 µM
  TGI: > 100 µM
[4]
  GI50: > 100 µM
  TGI: > 100 µM
[5]
  GI50: 58.8 µM
  TGI: > 100 µM
[6]
  GI50: 44 µM
  TGI: > 100 µM
[7]
  GI50: > 100 µM
  TGI: > 100 µM
[8]
  GI50: 88.3 µM
  TGI: > 100 µM

## CCN(CC)CC1c2ccccc2C(CNc2ccccc2)N1C (stereo not drawn)
[1]
  TGI: > 100 µM
[2]
  TGI: > 100 µM
[3]
  TGI: > 100 µM
[4]
  TGI: > 100 µM
[5]
  TGI: > 100 µM
[6]
  TGI: > 100 µM
[7]
  TGI: > 100 µM
[8]
  TGI: > 100 µM

## C/C(=C\c1ccc2ccccc2c1)[N+](=O)[O-]
[1]
  GI50: 1.99 µM
  TGI: 3.83 µM
[2]
  GI50: 2.31 µM
  TGI: 5.49 µM
[3]
  GI50: 2.11 µM
  TGI: 4.19 µM
[4]
  GI50: 2.2 µM
  TGI: 4.94 µM
[10]
  GI50: 7.75 µM
  TGI: 23.7 µM
[6]
  GI50: 13.1 µM
  TGI: 27.6 µM
[7]
  GI50: 1.78 µM
  TGI: 3.54 µM
